According to US20250145665A1, “MACROCYCLIC PEPTIDES USEFUL AS MODULATORS OF TNF ALPHA” (Bristol-Myers Squibb Company, priority 2023, published 2025):
pIC50: −log10 of the molar value. Like-named read-outs stand apart in the source and are kept apart here. Starred links: 1 amine or outer side, 2 acyl side, 3 side chain; linkers in the order of their positions; H or OH if unused. Positions of bridges follow the written chain, without caps; N, C: chain ends. Non-standard residues stand in square brackets, D forms with d. Residues, ends and D or L forms follow the SMILES beside them. *: point of attachment. Bip(4'-(3-HOOC-benzamido)) = N[C@@H](Cc1ccc(-c2ccc(NC(=O)c3cccc(C(=O)O)c3)cc2)cc1)C(=O)O; X5 = Cn1nc(C(=O)Nc2ccc(-c3ccc(C[C@H](N[*:1])C(=O)[*:2])cc3)cc2)c2ccccc21; Bip(4'-NHBz) = N[C@@H](Cc1ccc(-c2ccc(NC(=O)c3ccccc3)cc2)cc1)C(=O)O; Bip(4'-NH) = O=C([C@H](Cc1ccc(-c2ccc(N[*:3])cc2)cc1)N[*:1])[*:2]; Bip(4'-CONHMe) = CNC(=O)c1ccc(-c2ccc(C[C@H](N)C(=O)O)cc2)cc1; Indazole3carbonyl(1-CH2COOH) = O=C(O)Cn1nc(C(=O)*)c2ccccc21; Bip(4'-COOH) = N[C@@H](Cc1ccc(-c2ccc(C(=O)O)cc2)cc1)C(=O)O; Bip(4'-NHAc) = CC(=O)Nc1ccc(-c2ccc(C[C@H](N)C(=O)O)cc2)cc1; X4 = N=C(NCCCc1cccc(N)c1)NCCC[C@@H](N[*:1])C(=O)[*:2]; X6 = N=C(NCCCCC(N)=O)NCCC[C@@H](N[*:1])C(=O)[*:2]; Ala(morpholin-4-yl) = N[C@@H](CN1CCOCC1)C(=O)O; X41 = N=C(NCCCO)NCCC[C@@H](N[*:1])C(=O)[*:2]; X12 = N=C(NCCO)NCCC[C@@H](N[*:1])C(=O)[*:2]; Bip = N[C@@H](Cc1ccc(-c2ccccc2)cc1)C(=O)O; Tic = O=C(O)[C@@H]1Cc2ccccc2CN1; Cha = N[C@@H](CC1CCCCC1)C(=O)O; Tle = CC(C)(C)[C@H](N)C(=O)O; Sar = CNCC(=O)O

Target: TNFα (Homo sapiens, UniProt P01375)
Sequence (P01375 77-233 limits assumed): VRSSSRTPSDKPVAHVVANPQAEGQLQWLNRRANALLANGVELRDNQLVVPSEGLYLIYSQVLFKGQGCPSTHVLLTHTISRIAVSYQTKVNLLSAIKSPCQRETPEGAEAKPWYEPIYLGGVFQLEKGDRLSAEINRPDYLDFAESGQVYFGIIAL
Experiment: TNF-Induced HEK-Blue Assay
Assay type: cell-based
[1] = HEK-Blue-CD40L cells, NF-kB-driven secreted alkaline phosphatase reporter, TNFα 0.5 ng/ml, 18 h, read-out: TNF induced HEK-Blue assay IC50 value

Structure (SMILES) | pIC50 | pIC50 [1]
CC(C)C[C@@H]1NC(=O)[C@H](Cc2ccc(O)cc2)NC(=O)[C@H](C(C)C)NC(=O)[C@@H]2Cc3ccccc3CN2C(=O)[C@H](C(C)C)NC(=O)[C@@H](CCCNC(=N)N)NC(=O)[C@H](CC(=O)O)NC(=O)[C@@H]2CCCN2C(=O)CN(C)C(=O)[C@H](Cc2ccc(-c3ccc(NC(=O)c4ccccc4)cc3)cc2)NC(=O)[C@H](Cc2ccc(-c3ccc(C(=O)O)cc3)cc2)NC(=O)[C@H](CC2CCCCC2)NC(=O)CSC[C@@H](C(=O)NCC(N)=O)NC1=O [Example 383] ({CH2CO}-[Cha][Bip(4'-COOH)][Bip(4'-NHBz)][Sar]PD[dR]V[Tic]VYLCG-NH2; thioether N-13) | 6.70 to 7.30 | –
CC(C)C[C@@H]1NC(=O)[C@H](Cc2ccc(O)cc2)NC(=O)[C@H](C(C)C)NC(=O)[C@@H]2Cc3ccccc3CN2C(=O)[C@H](C(C)C)NC(=O)[C@@H](CCCNC(=N)N)NC(=O)[C@H](CC(=O)O)NC(=O)[C@@H]2CCCN2C(=O)CN(C)C(=O)[C@H](Cc2ccc(-c3ccc(NC(=O)c4cccc(C(=O)O)c4)cc3)cc2)NC(=O)[C@H](Cc2ccc(-c3ccc(C(=O)O)cc3)cc2)NC(=O)[C@H](CC2CCCCC2)NC(=O)CSC[C@@H](C(=O)NCC(N)=O)NC1=O [Example 384] ({CH2CO}-[Cha][Bip(4'-COOH)][Bip(4'-(3-HOOC-benzamido))][Sar]PD[dR]V[Tic]VYLCG-NH2; thioether N-13) | – | 6.70 to 7.30
CC[C@H](C)[C@@H]1NC(=O)[C@@H]2CCCN2C(=O)[C@H]([C@@H](C)CC)NC(=O)[C@@H](CCCNC(=N)N)NC(=O)[C@H](CC(=O)O)NC(=O)[C@H](Cc2ccccc2)NC(=O)CN(C)C(=O)[C@H](Cc2ccc(-c3ccc(NC(C)=O)cc3)cc2)NC(=O)[C@H](Cc2ccc(-c3ccc(C(=O)NC)cc3)cc2)NC(=O)[C@H](C(C)(C)C)NC(=O)CSC[C@@H](C(=O)NCC(N)=O)NC(=O)[C@H](CC(C)C)NC(=O)[C@H](Cc2cnc[nH]2)NC1=O [Example 385] ({CH2CO}-[Tle][Bip(4'-CONHMe)][Bip(4'-NHAc)][Sar]FD[dR]IPIHLCG-NH2; thioether N-13) | – | > 7.30
CNC(=O)c1ccc(-c2ccc(C[C@@H]3NC(=O)[C@H](CC4CCCCC4)NC(=O)CSC[C@@H](C(=O)NCC(N)=O)NC(=O)[C@H](CC(C)C)NC(=O)[C@H](Cc4ccc(O)cc4)NC(=O)[C@H](C(C)C)NC(=O)[C@@H]4Cc5ccccc5CN4C(=O)[C@H](C(C)C)NC(=O)[C@@H](CCCNC(=N)N)NC(=O)[C@H](CC(=O)O)NC(=O)[C@@H]4CCCN4C(=O)CN(C)C(=O)[C@H](Cc4ccc(-c5ccc(NC(C)=O)cc5)cc4)NC3=O)cc2)cc1 [Example 386] ({CH2CO}-[Cha][Bip(4'-CONHMe)][Bip(4'-NHAc)][Sar]PD[dR]V[Tic]VYLCG-NH2; thioether N-13) | – | 6.70 to 7.30
CC(C)C[C@@H]1NC(=O)[C@H](CCCNC(=N)N)NC(=O)[C@H](C(C)C)NC(=O)[C@@H]2CCCN2C(=O)[C@H](C(C)C)NC(=O)[C@@H](CCCNC(=N)NCCO)NC(=O)[C@H](CC(=O)O)NC(=O)[C@@H]2CCCN2C(=O)CN(C)C(=O)[C@H](Cc2ccc(-c3ccc(NC(=O)c4nn(CC(=O)O)c5ccccc45)cc3)cc2)NC(=O)[C@H](Cc2ccc(-c3ccccc3)cc2)NC(=O)[C@H](CN2CCOCC2)NC(=O)CSC[C@@H](C(=O)NCC(N)=O)NC1=O [Example 387] ({CH2CO}-[Ala(morpholin-4-yl)][Bip][Bip(4'-NH)](Indazole3carbonyl(1-CH2COOH))[Sar]PD[X12]VPVRLCG-NH2; thioether N-13) | > 7.30 | –
CC(C)C[C@@H]1NC(=O)[C@H](CCCNC(=N)N)NC(=O)[C@H](C(C)C)NC(=O)[C@@H]2CCCN2C(=O)[C@H](C(C)C)NC(=O)[C@@H](CCCNC(=N)NCCO)NC(=O)[C@H](CC(=O)O)NC(=O)[C@@H]2CCCN2C(=O)CN(C)C(=O)[C@H](Cc2ccc(-c3ccc(NC(=O)c4nn(C)c5ccccc45)cc3)cc2)NC(=O)[C@H](Cc2ccc(-c3ccccc3)cc2)NC(=O)[C@H](CN2CCOCC2)NC(=O)CSC[C@@H](C(=O)NCC(N)=O)NC1=O [Example 388] ({CH2CO}-[Ala(morpholin-4-yl)][Bip][X5][Sar]PD[X12]VPVRLCG-NH2; thioether N-13) | – | > 7.30
CC(C)C[C@@H]1NC(=O)[C@H](CCCNC(=N)N)NC(=O)[C@H](C(C)C)NC(=O)[C@@H]2CCCN2C(=O)[C@H](C(C)C)NC(=O)[C@@H](CCCNC(=N)NCCCO)NC(=O)[C@H](CC(=O)O)NC(=O)[C@@H]2CCCN2C(=O)CN(C)C(=O)[C@H](Cc2ccc(-c3ccc(NC(=O)c4nn(CC(=O)O)c5ccccc45)cc3)cc2)NC(=O)[C@H](Cc2ccc(-c3ccccc3)cc2)NC(=O)[C@H](CN2CCOCC2)NC(=O)CSC[C@@H](C(=O)NCC(N)=O)NC1=O [Example 389] ({CH2CO}-[Ala(morpholin-4-yl)][Bip][Bip(4'-NH)](Indazole3carbonyl(1-CH2COOH))[Sar]PD[X41]VPVRLCG-NH2; thioether N-13) | > 7.30 | –
CC(C)C[C@@H]1NC(=O)[C@H](CCCNC(=N)N)NC(=O)[C@H](C(C)C)NC(=O)[C@@H]2CCCN2C(=O)[C@H](C(C)C)NC(=O)[C@@H](CCCNC(=N)NCCCCC(N)=O)NC(=O)[C@H](CC(=O)O)NC(=O)[C@@H]2CCCN2C(=O)CN(C)C(=O)[C@H](Cc2ccc(-c3ccc(NC(=O)c4nn(CC(=O)O)c5ccccc45)cc3)cc2)NC(=O)[C@H](Cc2ccc(-c3ccccc3)cc2)NC(=O)[C@H](CN2CCOCC2)NC(=O)CSC[C@@H](C(=O)NCC(N)=O)NC1=O [Example 391] ({CH2CO}-[Ala(morpholin-4-yl)][Bip][Bip(4'-NH)](Indazole3carbonyl(1-CH2COOH))[Sar]PD[X6]VPVRLCG-NH2; thioether N-13) | 6.70 to 7.30 | –
CC(C)C[C@@H]1NC(=O)[C@H](CCCNC(=N)N)NC(=O)[C@H](C(C)C)NC(=O)[C@@H]2CCCN2C(=O)[C@H](C(C)C)NC(=O)[C@@H](CCCNC(=N)NCCCCC(N)=O)NC(=O)[C@H](CC(=O)O)NC(=O)[C@@H]2CCCN2C(=O)CN(C)C(=O)[C@H](Cc2ccc(-c3ccc(NC(=O)c4nn(C)c5ccccc45)cc3)cc2)NC(=O)[C@H](Cc2ccc(-c3ccccc3)cc2)NC(=O)[C@H](CN2CCOCC2)NC(=O)CSC[C@@H](C(=O)NCC(N)=O)NC1=O [Example 392] ({CH2CO}-[Ala(morpholin-4-yl)][Bip][X5][Sar]PD[X6]VPVRLCG-NH2; thioether N-13) | – | 6.70 to 7.30
CC(C)C[C@@H]1NC(=O)[C@H](CCCNC(=N)N)NC(=O)[C@H](C(C)C)NC(=O)[C@@H]2CCCN2C(=O)[C@H](C(C)C)NC(=O)[C@@H](CCCNC(=N)NCCCc2cccc(N)c2)NC(=O)[C@H](CC(=O)O)NC(=O)[C@@H]2CCCN2C(=O)CN(C)C(=O)[C@H](Cc2ccc(-c3ccc(NC(=O)c4nn(CC(=O)O)c5ccccc45)cc3)cc2)NC(=O)[C@H](Cc2ccc(-c3ccccc3)cc2)NC(=O)[C@H](CN2CCOCC2)NC(=O)CSC[C@@H](C(=O)NCC(N)=O)NC1=O [Example 393] ({CH2CO}-[Ala(morpholin-4-yl)][Bip][Bip(4'-NH)](Indazole3carbonyl(1-CH2COOH))[Sar]PD[X4]VPVRLCG-NH2; thioether N-13) | > 7.30 | –
CC(C)C[C@@H]1NC(=O)[C@H](CCCNC(=N)N)NC(=O)[C@H](C(C)C)NC(=O)[C@@H]2CCCN2C(=O)[C@H](C(C)C)NC(=O)[C@@H](CCCNC(=N)NCCCc2cccc(N)c2)NC(=O)[C@H](CC(=O)O)NC(=O)[C@@H]2CCCN2C(=O)CN(C)C(=O)[C@H](Cc2ccc(-c3ccc(NC(=O)c4nn(C)c5ccccc45)cc3)cc2)NC(=O)[C@H](Cc2ccc(-c3ccccc3)cc2)NC(=O)[C@H](CN2CCOCC2)NC(=O)CSC[C@@H](C(=O)NCC(N)=O)NC1=O [Example 394] ({CH2CO}-[Ala(morpholin-4-yl)][Bip][X5][Sar]PD[X4]VPVRLCG-NH2; thioether N-13) | – | 6.70 to 7.30
